Publication PMC11189555, “Aryl amino acetamides prevent Plasmodium falciparum ring development via targeting the lipid-transfer protein PfSTART1” (Nature Communications, 2024)
“And” between values parts separate entries of the source, which are not always exact repeats. Identical values can stand only once. Like-named read-outs stand apart in the source and are kept apart here.

Test system: 3D7 P. falciparum parasites
Assay: Growth inhibition assay (72 h, LDH activity)
Assay type: cell-based, Plasmodium falciparum
Details: for Growth inhibition, (1 - av / DMSO) x 100: Fig 2B source data, 3D7, per biological replicate; for inhibition at 0.123457 µM: conc 123.457 nM; for inhibition at 0.37037 µM: conc 370.37 nM; for inhibition at 1.11111 µM: conc 1111.11 nM; for inhibition at 3.33333 µM: conc 3333.33 nM; for inhibition at 10 µM: conc 10000 nM
Protocol: Parasite growth assays with inhibitory compounds were performed as per[11] and are fully described in the Supplementary Information. […]
Growth inhibition assays. Synchronised ring-stage parasites (0.3-0.6% parasitemia, 2% haematocrit) were grown for 72 h in a serial-dilution of the compound under […]
and compound 4. Note that M-833 was first purchased from MolPort (MolPort -002-267-916) then made in-house at WEHI: the differences observed in EC50s across experiments are attributed to the different batches of M -833. For some experiments, 0, 0.25 or 2.5 mM of glucosamine (GlcN) was also added. Experiments were set up in technical duplicates or triplicates. Following a freeze -thaw cycle, lactate dehydrogenase (LDH) activity was assessed as an indicator of parasite growt h 5. 30 μL of parasite culture was incubated for 30 min in the dark with 75 μL Malstat mixture (0.1 M Tris pH 9.0, 20 g/L lactic acid, pH 7.5, 0.2% Triton-X100, 0.5 g/L acetylpyridine adenine dinucleotide (APAD, Sigma), 200 μg/mL nitroblue tetrazolium (NBT; Sigma), 1 μg/mL phenozine ethosulfate (PES; Sigma)). Absorbance was then measured at 650 nm, transformed using the formula below, plotted against the logarithm of the concentrations, and a non-linear regression (log(inhibitor) vs. response, variable slope) was calculated using GraphPad Prism to assess the half-inhibitory […]
Growth inhibition % = (1 − average(sample)− average(uRBC)) ∗ 100 […]
The DMSO samples were also used to assess growth of parasite in the presence of 0.25 and 2.5 mM GlcN (normalised by DMSO in 0 mM GlcN). […]

[1] = Plasmodium falciparum, 3D7, 3D7, 0 mM GlcN, read-out: Growth inhibition assay, NORMALISED
[2] = Plasmodium falciparum, 3D7, 3D7, 0.25 mM GlcN, read-out: Growth inhibition assay, NORMALISED

Cc1cc(Cl)c(S(=O)(=O)N2CCCC2)cc1OCC(=O)NC1CCCCC1 [M-833]
Normalised to DMSO (3D7 replicate 2, M-833 0.15625 uM (plate column as in replicate 1)): 42.9307
Normalised to DMSO (3D7 replicate 2, M-833 0.3125 uM (plate column as in replicate 1)): 17.4092
Normalised to DMSO (3D7 replicate 2, M-833 0.625 uM (plate column as in replicate 1)): 12.6706
Normalised to DMSO (3D7 replicate 2, M-833 1.25 uM (plate column as in replicate 1)): 9.0394
Normalised to DMSO (3D7 replicate 2, M-833 2.5 uM (plate column as in replicate 1)): 8.2153
Normalised to DMSO (3D7 replicate 2, M-833 5 uM (plate column as in replicate 1)): 8.679
Normalised to DMSO (3D7 replicate 2, M-833 10 uM (plate column as in replicate 1)): 8.859
Growth inhibition, (1 - av / DMSO) x 100 (M-833 conc 0.00152416 (unit not given)): -18.032% and -5.346% and 12.6336%
Growth inhibition, (1 - av / DMSO) x 100 (M-833 conc 0.00457247 (unit not given)): -25.7702% and -5.3748% and 10.1353%
Growth inhibition, (1 - av / DMSO) x 100 (M-833 conc 0.0137174 (unit not given)): -26.0091% and 2.611% and 15.3938%
Growth inhibition, (1 - av / DMSO) x 100 (M-833 conc 0.0411523 (unit not given)): 13.4703% and 15.2318% and 31.5623%
Growth inhibition, (1 - av / DMSO) x 100 (M-833 conc 0.123457 (unit not given)): 53.3795% and 44.2845% and 58.2697%
Growth inhibition, (1 - av / DMSO) x 100 (M-833 conc 0.37037 (unit not given)): 86.6253% and 82.9734% and 89.4611%
Growth inhibition, (1 - av / DMSO) x 100 (M-833 conc 1.11111 (unit not given)): 95.3188% and 95.9852%
Growth inhibition, (1 - av / DMSO) x 100 (M-833 conc 3.33333 (unit not given)): 96.9668% and 96.3144% and 96.0397%
Growth inhibition, (1 - av / DMSO) x 100 (M-833 conc 10 (unit not given)): 97.5639% and 97.303% and 96.0397%
Normalised to DMSO (M-833 0.0390625 uM, 3D7 replicate 3): 105.125
Normalised to DMSO (M-833 0.078125 uM, 3D7 replicate 3): 101.149
Normalised to DMSO (M-833 0.15625 uM, 3D7 replicate 3): 87.6289
Normalised to DMSO (M-833 0.3125 uM, 3D7 replicate 3): 55.4639
Normalised to DMSO (M-833 0.625 uM, 3D7 replicate 3): 35.4934
Normalised to DMSO (M-833 1.25 uM, 3D7 replicate 3): 26.4801
Normalised to DMSO (M-833 2.5 uM, 3D7 replicate 3): 22.6804
Normalised to DMSO (M-833 5 uM, 3D7 replicate 3): 16.5832
Normalised to DMSO (M-833 10 uM, 3D7 replicate 3): 21.9735
inhibition at 0.0137174 µM (Plasmodium falciparum, 3D7, 3D7, 0 mM GlcN, conc 13.7174 nM, read-out: Growth inhibition assay, NORMALISED): 20.6%
inhibition at 0.0411523 µM (Plasmodium falciparum, 3D7, 3D7, 0 mM GlcN, conc 41.1523 nM, read-out: Growth inhibition assay, NORMALISED): 44.4%
inhibition at 0.123457 µM [1]: 79.5%
inhibition at 0.37037 µM [1]: 90.2%
inhibition at 1.11111 µM [1]: 91.3%
inhibition at 3.33333 µM [1]: 93.7%
inhibition at 10 µM [1]: 94.5%
inhibition at 0.123457 µM [2]: 77.6%
inhibition at 0.37037 µM [2]: 91.4%
inhibition at 1.11111 µM [2]: 95.5%
inhibition at 3.33333 µM [2]: 94.5%
inhibition at 10 µM [2]: 92.9%
inhibition at 0.0390625 µM (Plasmodium falciparum, 3D7, 3D7 replicate 1, M-833 0.0390625 uM): 6.15%
inhibition at 0.078125 µM (Plasmodium falciparum, 3D7, 3D7 replicate 1, M-833 0.078125 uM): 21.8%
inhibition at 0.15625 µM (Plasmodium falciparum, 3D7, 3D7 replicate 1, M-833 0.15625 uM): 47%
inhibition at 0.3125 µM (Plasmodium falciparum, 3D7, 3D7 replicate 1, M-833 0.3125 uM): 68.2%
